In experiment [1] the target is T1, Peptide N-myristoyltransferase (Homo sapiens, UniProt P30419+O60551).
T1 sequence (P30419 whole entry): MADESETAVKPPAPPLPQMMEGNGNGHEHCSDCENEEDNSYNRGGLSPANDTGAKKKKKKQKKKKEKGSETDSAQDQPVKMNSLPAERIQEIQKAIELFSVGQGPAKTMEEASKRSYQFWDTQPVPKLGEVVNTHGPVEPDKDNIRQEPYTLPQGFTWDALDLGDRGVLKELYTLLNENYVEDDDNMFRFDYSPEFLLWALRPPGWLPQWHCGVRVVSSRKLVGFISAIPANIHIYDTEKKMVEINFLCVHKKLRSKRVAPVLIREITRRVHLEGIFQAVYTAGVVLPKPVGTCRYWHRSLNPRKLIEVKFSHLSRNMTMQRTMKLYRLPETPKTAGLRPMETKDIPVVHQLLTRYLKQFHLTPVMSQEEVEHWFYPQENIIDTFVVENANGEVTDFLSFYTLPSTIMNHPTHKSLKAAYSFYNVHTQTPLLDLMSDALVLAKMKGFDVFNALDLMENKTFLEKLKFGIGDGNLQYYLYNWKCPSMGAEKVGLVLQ
T1 sequence (O60551 whole entry): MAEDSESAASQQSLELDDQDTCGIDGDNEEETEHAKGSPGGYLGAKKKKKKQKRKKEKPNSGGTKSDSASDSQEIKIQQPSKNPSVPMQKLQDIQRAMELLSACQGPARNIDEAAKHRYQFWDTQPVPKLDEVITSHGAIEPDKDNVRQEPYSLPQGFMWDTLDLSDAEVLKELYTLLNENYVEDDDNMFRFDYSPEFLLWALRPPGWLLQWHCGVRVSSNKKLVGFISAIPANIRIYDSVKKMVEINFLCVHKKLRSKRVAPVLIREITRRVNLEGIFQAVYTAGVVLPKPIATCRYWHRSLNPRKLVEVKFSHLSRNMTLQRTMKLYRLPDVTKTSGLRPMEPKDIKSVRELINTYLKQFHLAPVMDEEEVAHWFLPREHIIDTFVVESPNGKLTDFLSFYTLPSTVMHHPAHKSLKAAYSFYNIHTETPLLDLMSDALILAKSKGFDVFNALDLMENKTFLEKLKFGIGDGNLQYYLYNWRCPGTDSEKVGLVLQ
As to the kind of experiment: Inhibitory activity against human N-Myristoyltransferase (NMT). The experiment is classed as protein assay.

Experiment [2] can be described thus: Selectivity is the ratio of the IC50 against human NMT to the IC50 against Candida albicans NMT. Type of experiment: functional.
Experiment [3] concerns the target T1, Peptide N-myristoyltransferase. As to the kind of experiment: Apparent binding affinity against Human NMT. The experiment is classed as protein assay.
The target in experiment [4] is Peptide N-myristoyltransferase (Candida albicans).
Experiment [5] has the same target. This is another data set of the same source.

For orientation: IC50 means the point on the concentration scale where inhibition reaches its midpoint. A word on the pKi: it is the Ki on a negative log10 scale, so that one unit is a factor of ten.

Each structure is given as a SMILES string. pKi: −log10 of the molar value. Where a SMILES comes first, the peptide text is derived from it. [ ]: non-standard residue; d: D form. Aun = NCCCCCCCCCCC(=O)O

Consider `NCCCC[C@H](NC(=O)[C@H](CO)NC(=O)CCCCCCCCCCn1ccnc1)C(=O)NCCC1CCCCC1`, for which the IC50 came out at 11400 nM in experiment [1] and 1600 nM in experiment [4]. For the same compound, the Selectivity in experiment [2] stood at 7.1. The pKi in experiment [3] was 5.38; in experiment [5], 6.12.
Take `NCCCC[C@H](NC(=O)[C@H](CO)NC(=O)Cc1ccc(CCCCn2ccnc2)cc1)C(=O)NCCC1CCCCC1`: the 50% inhibitory concentration (IC50) in experiment [1] came out at 16000 nM; in experiment [4] it was 420 nM. Moreover, in experiment [2], the Selectivity was determined as 38. The same compound had a negative logarithm of the Ki (pKi) in experiment [5] of 6.23.
Take `CC(C)CCNC(=O)[C@H](CCCCN)NC(=O)[C@H](CO)NC(=O)CCCCCCCCCCN`: the results for the IC50 in experiment [1] and in experiment [4] were 420 nM and 780 nM, respectively. Also, in experiment [2], the Selectivity worked out at 0.5.
As to `NCCCCCCCCCCC(=O)N[C@@H](CO)C(=O)N[C@@H](CCCCN)C(=O)NCCC1CCCCCCC1`, the IC50 in experiment [1] was found to be 1140 nM; in experiment [4], 300 nM. In addition, the Selectivity in experiment [2] is 3.8. Besides, the negative logarithm of the Ki (pKi) in experiment [5] was 6.89.
In the case of `CC(C)C[C@H](NC(=O)[C@H](CCCCN)NC(=O)[C@H](CO)NC(=O)CCCCCCCCCCN)C(N)=O` (H-[Aun]SKL-NH2), the values for the concentration for half-maximal inhibition (IC50) in experiment [1] and in experiment [4] were 230 nM and 1200 nM, respectively. Further, the Selectivity in experiment [2] was found to be 0.2.

The record behind these values is ChEMBL document CHEMBL1128372, “Design and syntheses of potent and selective dipeptide inhibitors of Candida albicans myristoyl-CoA:protein N-myristoyltransferase” (J Med Chem, 1995).
